# Test results as given in PubChem BioAssay AID2060499 (Molecular Pharmacology Branch, DTP, NCI, 2025).
# Tested on: 777334-354-R2-J4-PDC tumor spheroids with HUVEC/MSC, viability
# Experiment: Anticancer human tumor 777334-354-R2-J4-PDC patient-derived pancreatic adenocarcinoma cell line growth inhibition [GQUAD]
# Conditions: for IC50: curve of first compound; for viability, T/C: stronger effect = lower value
# Description: DNA G-quadruplex Stabilizer Agents in Combinations in Complex Spheroids
# A high-throughput screen of multi-cell type tumor spheroids was designed to identify active combinations of DNA G-quadruplex stabilizer agents and targeted small molecules. Complex spheroids include a stromal component modeled by human endothelial cells (HUVEC) and fibroblasts modeled by human mesenchymal stem cells (MSCs). The concentration ranges selected for each drug and investigational agent were based upon clinically achievable concentrations if the clinical Cmax of the agent was known.
# Compounds. The drugs and investigational agents: pidnarulex (CX-5461; NSC782164), APTO-253 (NSC789042), BRACO-19 (NSC847499), peposertib (NSC802822), ceralasertib (NSC780249), elimusertib (NSC800525), camonsertib (NSC841442), AZD-1390 (NSC803789), olaparib (NSC753686), talazoparib (NSC767125), ART-558 (NSC835418), sotorasib (NSC818433), MRTX-1133 (NSC836407), SN-38 (NSC673596), topotecan (NSC609699), etoposide (NSC141540), doxorubicin (NSC123127), gemcitabine (NSC613327), 5-fluorouracil (NSC19893), paclitaxel (NSC125973), vemurafenib (NSC761431), panobinostat (NSC761190), R-306465 (JNJ-16241199; NSC773264), adavosertib (NSC754352), TP-3654 (NSC805149), carboplatin (NSC241240), KSQ-4279 (NSC840948), and staurosporine (NSC755774) were obtained from the National Cancer Institute (NCI) Developmental Therapeutics Program Chemical Repository (34). The FDA-approved anticancer drug set is available from the NCI Developmental Therapeutics Program. […] The stock solutions were prepared in dimethyl sulfoxide (DMSO, Sigma-Aldrich, St. Louis, MO, cat. D2650) at 800-fold the tested concentration and stored at -70 degrees C prior to their use. All drugs and investigational agents were tested over a range starting from a high concentration at or near the clinical Cmax and decreasing in half-log increments. If the clinical Cmax for an agent had not been determined, the highest concentration tested was 10 microM.
# 2.3 Cell Culture. All cells were maintained in an incubator at 37 degrees C and 5% CO2 with 95% humidity. The PDC lines were cultured according to standard operating procedures established by the NCI PDMR. All PDCs were thawed and cultured in Matrigel-coated flasks prepared with a working solution of 1X Ham's F-12 nutrient mix, without supplementation (Invitrogen, cat. 11765054), 100 U/mL penicillin-streptomycin (Invitrogen, cat. 15140122), and 2.5% Matrigel (Corning Inc., cat. 354248) for the first three passages. The 857933-349-R-J2-PDC line was cultured in 6C/Colon 1B media, which includes advanced DMEM/F-12 (Thermo Fisher Scientific, cat. 12634028), 10 mM HEPES (Thermo Fisher Scientific, cat. 15630080), 1X GlutaMAX supplement (Thermo Fisher Scientific, cat. 35050061), 0.1 mg/mL primocin (InvivoGen, cat. ant-pm-2), 10% defined fetal bovine serum, heat inactivated (HyClone Laboratories Inc., cat. SH30070.03HI), 50% L-WRN conditioned media (ATCC, cat. CRL-3276), 1.25 mM N-Acetyl-L-cysteine (Sigma-Aldrich, cat. A9165), 10 mM nicotinamide (Sigma-Aldrich, cat. N0636), 1X B-27 supplement (Thermo Fisher Scientific, cat. 17504044), 1X N-2 supplement (Thermo Fisher Scientific, cat. 17502048), 10 microM Y-27632 dihydrochloride (Tocris Bioscience, cat. 1254), and 50 ng/mL human EGF recombinant protein (Thermo Fisher Scientific, cat. PHG0311). The 485176-168-R4-J1-PDC line was cultured in Panc media, which includes all 6C/Colon 1B media components plus 100 ng/mL human FGF-10 (Thermo Fisher Scientific, cat. 100-26), 500 nM SB-431542 (Selleckchem, cat. S1067), and gastrin (Tocris, cat. 3006).
# […]
# [1] = second compound 0.0316 µM, first compound 0.0316 µM
# [2] = second compound 0.0316 µM, first compound 0.316 µM
# [3] = second compound 0.1 µM, first compound 0.0316 µM
# [4] = second compound 0.1 µM, first compound 0.316 µM
# [5] = second compound 0.316 µM, first compound 0.0316 µM
# [6] = second compound 0.316 µM, first compound 0.316 µM
# [7] = second compound 1 µM, first compound 0.0316 µM
# [8] = second compound 1 µM, first compound 0.316 µM
# [9] = second compound 3.16 µM, first compound 0.0316 µM
# [10] = second compound 3.16 µM, first compound 0.316 µM
# [11] = second compound 10 µM, first compound 0.0316 µM
# [12] = second compound 10 µM, first compound 0.316 µM
# 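Note: spheroids exposed to compounds for 7 days before readout.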
compound,measurement,setting,value
Cn1ncnc1[C@H]1c2n[nH]c(=O)c3cc(F)cc(c23)N[C@@H]1c1ccc(F)cc1 + CN(C)c1ccc(Nc2c3ccc(NC(=O)CCN4CCCC4)cc3nc3cc(NC(=O)CCN4CCCC4)ccc23)cc1,IC50,second compound 0.0316 µM,> 0.316 µM
same,IC50,second compound 0.1 µM,> 0.316 µM
same,IC50,second compound 0.316 µM,> 0.316 µM
same,IC50,second compound 1 µM,> 0.316 µM
same,IC50,second compound 3.16 µM,> 0.316 µM
same,IC50,second compound 10 µM,> 0.316 µM
same,"viability, T/C","second compound 0.0316 µM, first compound 0.000999 µM",108%
same,"viability, T/C","second compound 0.0316 µM, first compound 0.00316 µM",89.9%
same,"viability, T/C","second compound 0.0316 µM, first compound 0.00999 µM",87.1%
same,"viability, T/C",[1],95.8%
same,"viability, T/C","second compound 0.0316 µM, first compound 0.0999 µM",92.2%
same,"viability, T/C",[2],79.7%
same,"viability, T/C","second compound 0.1 µM, first compound 0.000999 µM",98.7%
same,"viability, T/C","second compound 0.1 µM, first compound 0.00316 µM",85.4%
same,"viability, T/C","second compound 0.1 µM, first compound 0.00999 µM",99%
same,"viability, T/C",[3],88.6%
same,"viability, T/C","second compound 0.1 µM, first compound 0.0999 µM",79.6%
same,"viability, T/C",[4],81.2%
same,"viability, T/C","second compound 0.316 µM, first compound 0.000999 µM",94%
same,"viability, T/C","second compound 0.316 µM, first compound 0.00316 µM",87.4%
same,"viability, T/C","second compound 0.316 µM, first compound 0.00999 µM",93.1%
same,"viability, T/C",[5],87.9%
same,"viability, T/C","second compound 0.316 µM, first compound 0.0999 µM",88.5%
same,"viability, T/C",[6],70.5%
same,"viability, T/C","second compound 1 µM, first compound 0.000999 µM",103%
same,"viability, T/C","second compound 1 µM, first compound 0.00316 µM",86.6%
same,"viability, T/C","second compound 1 µM, first compound 0.00999 µM",85.5%
same,"viability, T/C",[7],85.5%
same,"viability, T/C","second compound 1 µM, first compound 0.0999 µM",82.5%
same,"viability, T/C",[8],69.5%
same,"viability, T/C","second compound 3.16 µM, first compound 0.000999 µM",73.5%
same,"viability, T/C","second compound 3.16 µM, first compound 0.00316 µM",72.7%
same,"viability, T/C","second compound 3.16 µM, first compound 0.00999 µM",81.6%
same,"viability, T/C",[9],89.9%
same,"viability, T/C","second compound 3.16 µM, first compound 0.0999 µM",83.1%
same,"viability, T/C",[10],70.9%
same,"viability, T/C","second compound 10 µM, first compound 0.000999 µM",76.2%
same,"viability, T/C","second compound 10 µM, first compound 0.00316 µM",74.9%
same,"viability, T/C","second compound 10 µM, first compound 0.00999 µM",80.6%
same,"viability, T/C",[11],77.6%
same,"viability, T/C","second compound 10 µM, first compound 0.0999 µM",82.2%
same,"viability, T/C",[12],66.1%
O=C(c1cc(Cc2n[nH]c(=O)c3ccccc23)ccc1F)N1CCN(C(=O)C2CC2)CC1 + CN(C)c1ccc(Nc2c3ccc(NC(=O)CCN4CCCC4)cc3nc3cc(NC(=O)CCN4CCCC4)ccc23)cc1,IC50,second compound 0.0316 µM,> 10 µM
same,IC50,second compound 0.1 µM,> 10 µM
same,IC50,second compound 0.316 µM,> 10 µM
same,IC50,second compound 1 µM,> 10 µM
same,IC50,second compound 3.16 µM,> 10 µM
same,IC50,second compound 10 µM,> 10 µM
same,"viability, T/C",[1],97.1%
same,"viability, T/C","second compound 0.0316 µM, first compound 0.1 µM",104%
same,"viability, T/C",[2],104%
same,"viability, T/C","second compound 0.0316 µM, first compound 1 µM",86%
same,"viability, T/C","second compound 0.0316 µM, first compound 3.16 µM",84%
same,"viability, T/C","second compound 0.0316 µM, first compound 10 µM",74.3%
same,"viability, T/C",[3],88%
same,"viability, T/C","second compound 0.1 µM, first compound 0.1 µM",82.6%
same,"viability, T/C",[4],93.5%
same,"viability, T/C","second compound 0.1 µM, first compound 1 µM",92.1%
same,"viability, T/C","second compound 0.1 µM, first compound 3.16 µM",88.5%
same,"viability, T/C","second compound 0.1 µM, first compound 10 µM",72.5%
same,"viability, T/C",[5],80.6%
same,"viability, T/C","second compound 0.316 µM, first compound 0.1 µM",94.9%
same,"viability, T/C",[6],97.2%
same,"viability, T/C","second compound 0.316 µM, first compound 1 µM",81%
same,"viability, T/C","second compound 0.316 µM, first compound 3.16 µM",94.1%
same,"viability, T/C","second compound 0.316 µM, first compound 10 µM",66.7%
same,"viability, T/C",[7],84.9%
same,"viability, T/C","second compound 1 µM, first compound 0.1 µM",89.8%
same,"viability, T/C",[8],86.7%
same,"viability, T/C","second compound 1 µM, first compound 1 µM",86.2%
same,"viability, T/C","second compound 1 µM, first compound 3.16 µM",80.4%
same,"viability, T/C","second compound 1 µM, first compound 10 µM",65.4%
same,"viability, T/C",[9],79.7%
same,"viability, T/C","second compound 3.16 µM, first compound 0.1 µM",81.7%
same,"viability, T/C",[10],68.3%
same,"viability, T/C","second compound 3.16 µM, first compound 1 µM",76.2%
same,"viability, T/C","second compound 3.16 µM, first compound 3.16 µM",82.6%
same,"viability, T/C","second compound 3.16 µM, first compound 10 µM",69.1%
same,"viability, T/C",[11],64.7%
same,"viability, T/C","second compound 10 µM, first compound 0.1 µM",76.7%
same,"viability, T/C",[12],76.4%
same,"viability, T/C","second compound 10 µM, first compound 1 µM",81%
same,"viability, T/C","second compound 10 µM, first compound 3.16 µM",71%
same,"viability, T/C","second compound 10 µM, first compound 10 µM",66.9%
